This passage reports EC50 and EC90 results from ChEMBL document CHEMBL5661943, “ASAP - In vitro antiviral effect” (2024).

Assay [1] relates to Middle East respiratory syndrome-related coronavirus. The assay is described as follows: microbe, parasite or virus in culture. In kind it is functional, organism-based, Chlorocebus sabaeus. The settings on record: VeroE6/TMPRSS2.
In assay [2] the test system is dengue virus type 2. The assay is described as follows: Functional immunofluorescence assay to measure dose dependent changes in antiviral-drug inhibitory efficacy against Dengue virus type 2 Thailand/16681/84 in Vero E6/TMPRSS2 cells (cotreated with P-gp inhibitor, Elacridar). Cells are treated with antiviral candidates that are serially diluted, following infection, cells are fixed. EC50 is reported via analysis of immunofluorescence staining. The assay has been performed by Icahn School of Medicine at Mount Sinai. In kind it is organism-based, Chlorocebus sabaeus, VeroE6/TMPRSS2. The settings on record: Dengue virus.

For assay [3], the system named is Zika virus. The assay is described as follows: Functional CPE-based assay to measure dose dependent changes in antiviral-drug inhibitory efficacy against Zika virus MR766 in Vero E6 miRFP670 cells (cotreated with P-gp inhibitor, CP100356). Cells are treated with antiviral candidates that are serially diluted. EC50 is reported via analysis of MTS assay as a readout of CPE. The assay has been performed by KU Leuven. It counts as organism-based, Chlorocebus sabaeus, Vero C1008. The note with it: for EC90: Baseline response 0 %, Maximum response 100 %, P-gp inhibitor CP100356.

The subject of assay [4] is Zika virus. Briefly: EC50 is reported via analysis of immunofluorescence staining. The assay has been performed by Icahn School of Medicine at Mount Sinai. In kind it is functional, organism-based, Chlorocebus sabaeus, VeroE6/TMPRSS2. The settings on record: for EC90: Baseline response 0 %, P-gp concentration 2 uM, P-gp inhibitor Elacidar.
For assay [5], the system named is dengue virus type 2. Briefly: Functional assay to measure dose dependent changes in antiviral-drug inhibitory efficacy against Dengue virus type 2 New Guinea C in Vero E6 miRFP670 cells (cotreated with P-gp inhibitor, CP100356). Cells are treated with antiviral candidates that are serially diluted, following infection, cells are fixed. EC50 is reported via analysis of fluorescence intensity using high-content imager. The …. In kind it is organism-based, Chlorocebus sabaeus, Vero C1008.

The subject of assay [6] is Zika virus. Briefly: Functional CPE-based assay to measure dose dependent changes in antiviral-drug inhibitory efficacy against Zika virus MR766 in Vero E6 miRFP670 cells. Cells are treated with antiviral candidates that are serially diluted. EC50 is reported via analysis of MTS assay as a readout of CPE. The assay has been performed by KU Leuven. In kind it is organism-based, Chlorocebus sabaeus, Vero C1008. Background: Tetrazolium dyes change colour on reduction, which living cells bring about.

Assay [7] relates to dengue virus type 2. Briefly: Functional assay to measure dose dependent changes in antiviral-drug inhibitory efficacy against Dengue virus type 2 New Guinea C in Vero E6 miRFP670 cells. Cells are treated with antiviral candidates that are serially diluted, following infection, cells are fixed. EC50 is reported via analysis of fluorescence intensity using high-content imager. The assay has been performed by KU Leuven. It counts as organism-based, Chlorocebus sabaeus.

Assay [8] has as its system Zika virus. Briefly: Functional immunofluorescence assay to measure dose dependent changes in antiviral-drug inhibitory efficacy against Zika virus PRVABC59 in Vero E6/TMPRSS2 cells. Cells are treated with antiviral candidates that are serially diluted, following infection, cells are fixed. EC50 is reported via analysis of immunofluorescence staining. The assay has been performed by Icahn School of Medicine at Mount Sinai. It counts as organism-based, Chlorocebus sabaeus.

For assay [9], the system named is dengue virus type 2. Briefly: Functional CPE-based assay to measure dose dependent changes in antiviral-drug inhibitory efficacy against Dengue virus type 2 New Guinea C in Huh7 cells. Cells are treated with antiviral candidates that are serially diluted. EC50 is reported via analysis of MTT/MTS assay as a readout of CPE. The assay has been performed by National Institute of Allergy and Infectious Diseases. In kind it is organism-based, Homo sapiens. The settings on record: Huh-7.

Assay [10] has as its system dengue virus type 2. Briefly: Functional immunofluorescence assay to measure dose dependent changes in antiviral-drug inhibitory efficacy against Dengue virus type 2 Thailand/16681/84 in Vero E6/TMPRSS2 cells. Cells are treated with antiviral candidates that are serially diluted, following infection, cells are fixed. EC50 is reported via analysis of immunofluorescence staining. The assay has been performed by Icahn School of Medicine at Mount Sinai. It counts as organism-based, Chlorocebus sabaeus.

Several values for one entry are separate records, joined by “and”; a condition that tells them apart may be missing. Equal entries are not always repeated.

Regarding `C=CC[C@H](Nc1cccc(-c2nn[nH]n2)c1)c1cc(Cl)cc2[nH]ncc12`, in [1], the EC50 – broadly, the concentration giving half of the maximal effect – is 988 nM and the EC90 (as a rule, the concentration at which the effect reaches the 90% level) worked out at 2780 nM.
On to `O=C(Nc1ccc2c(c1)CNC2)c1cc(Cl)cc2[nH]ncc12`, for which the EC50 was over 50 µM in assay [2] (VeroE6/TMPRSS2); 4.57 µM in assay [3] (Zika virus, Vero C1008); 3.09 µM in assay [3] (vero c1008); 12.7 µM in assay [4] (Zika virus, VeroE6/TMPRSS2); over 50 µM in assay [5] (Dengue virus, Vero C1008); 34 µM and > 50 µM and 11.6 µM in assay [6] (vero c1008). The compound also had an EC50 in assay [7] (Vero C1008) of over 50 µM. Besides, the EC90 in [2] (VeroE6/TMPRSS2, Maximum measured 202.528 %, Minimum measured 74.934 %, P-gp concentration 2 uM, P-gp inhibitor Elacidar) was over 50 µM; in assay [3] (EC90 CI (lower) 3.61 uM, EC90 CI (upper) 15.25 uM, Hill slope 2.511, Maximum measured 126.79 %, Minimum measured 6.324 %, P-gp concentration 500 nM, R squared 0.896), 7.42 µM; in assay [3] (Zika virus, Vero C1008, EC90 CI (lower) 7.143 uM, EC90 CI (upper) 23.592 uM, Hill slope 2.106, Maximum measured 121.753 %, Minimum measured 3.066 %, P-gp concentration 100 nM, R squared 0.93), 13 µM; in [4] (Zika virus, VeroE6/TMPRSS2, Hill slope -1.535, Maximum measured 150.297 %, Maximum response 100 %, Minimum measured 39.396 %, R squared 0.523), over 16.7 µM; in assay [5] (Dengue virus, Vero C1008, Maximum measured 2.237 %, Minimum measured -2.116 %, P-gp concentration 100 nM, P-gp inhibitor CP100356), over 50 µM; in assay [5] (Dengue virus, Vero C1008, Maximum measured 108.122 %, Minimum measured 103.322 %, P-gp concentration 500 nM, P-gp inhibitor CP100356), over 50 µM. For the same compound, the 90% effect concentration (EC90) in assay [5] (Dengue virus, Vero C1008, Maximum measured 122.049 %, Minimum measured 106.43 %, P-gp concentration 500 nM, P-gp inhibitor CP100356) is over 50 µM; in assay [6] (Zika virus, Vero C1008, Baseline response 0 %, Hill slope 1.599, Maximum measured 39.692 %, Maximum response 100 %, Minimum measured -0.234 %, R squared 0.961), over 50 µM; in assay [6] (Zika virus, Vero C1008, Baseline response 0 %, Hill slope 4.496, Maximum measured 86.5 %, Maximum response 100 %, Minimum measured 2.921 %, R squared 0.876), over 50 µM; in assay [6] (Zika virus, Vero C1008, Baseline response 0 %, EC90 CI (lower) 23.876 uM, EC90 CI (upper) 46.036 uM, Hill slope 2.096, Maximum measured 107.811 %, Maximum response 100 %, Minimum measured 2.258 %, R squared 0.969), 33.1 µM; in assay [7] (Vero C1008, Baseline response 0 %, Hill slope -0.996, Maximum measured 1.395 %, Maximum response 100 %, Minimum measured -3.373 %, R squared 0.016), over 50 µM.
As for `CC(C)CNC(=O)c1cc(Cl)c(F)cc1NS(=O)(=O)c1ccc(Oc2ccccc2Cl)cc1`, the EC50 in [8] (VeroE6/TMPRSS2) is over 50 µM; in assay [9], over 3.1 µM; in assay [10] (VeroE6/TMPRSS2), 193 nM; in assay [4] (Zika virus, VeroE6/TMPRSS2), over 16.7 µM; in [4] (veroe6/tmprss2) it was 27.9 µM; in assay [5] (Dengue virus, Vero C1008), 5.32 µM. The EC50 in assay [5] (vero c1008) is 5.64 µM; in [6] (Zika virus, Vero C1008), over 50 µM. Also, the EC90 is over 50 µM in [8] (VeroE6/TMPRSS2, Maximum measured 624.218 %, Minimum measured 63.552 %); 1.89 µM in assay [2] (VeroE6/TMPRSS2); over 5.56 µM in [2] (VeroE6/TMPRSS2, Maximum measured 155.684 %, Minimum measured 125.095 %, P-gp concentration 2 uM, P-gp inhibitor Elacidar); over 1850 nM in assay [10] (VeroE6/TMPRSS2, Baseline response 0 %, Hill slope -0.469, Maximum measured 101.396 %, Maximum response 100 %, Minimum measured 33.359 %, R squared 0.321); over 50 µM in [4] (Hill slope -1.279, Maximum measured 136.576 %, Maximum response 60 %, Minimum measured 13.183 %, R squared 0.138); over 16.7 µM in [4] (Hill slope -13.406, Maximum measured 146.245 %, Maximum response 100 %, Minimum measured 54.335 %, R squared 0.12). Further, the concentration for an effect of 90% (EC90) in assay [5] (Baseline response 0 %, Hill slope -36.406, Maximum measured 110.21 %, Maximum response 100 %, Minimum measured 0.136 %, P-gp concentration 500 nM, R squared 0.986, P-gp inhibitor CP100356) was 5.99 µM; in assay [5] (Dengue virus, Vero C1008), 5.85 µM; in assay [6] (Zika virus, Vero C1008, Baseline response 0 %, Hill slope -1.049, Maximum measured 4.723 %, Maximum response 100 %, Minimum measured -5.364 %, R squared 0.235), over 50 µM; in assay [6] (Zika virus, Vero C1008, Maximum measured 0.142 %, Minimum measured -3.427 %), over 50 µM; in assay [6] (Zika virus, Vero C1008, Maximum measured 0.689 %, Minimum measured -11.388 %), over 50 µM.
